In patent US5576208A, “Antisense oligonucleotide inhibition of the RAS gene” (priority 1994, dated 1996):
“Also recorded” adds a separate entry of the source.

Columns and labels:
[1] = system: 25-base oligoribonucleotide of activated H-ras mRNA, mammalian RNase H; test: RNase H cleavage in vitro with HeLa nuclear extracts; format: biochemical, human; details: HeLa nuclear extracts as source of RNase H
Method: RNase H assays were performed using a chemically synthesized 25-base oligoribonucleotide corresponding to bases +23 to +47 of activated (codon 12, G→U) H-ras mRNA. The 5' end-labeled RNA was used at a concentration of 20 nM and incubated with a 10-fold molar excess of antisense oligonucleotide in a reaction containing 20 mM tris-Cl, pH 7.5, 100 mM KCl, 10 mM MgCl2, 1 mM dithiothreitol, 10 μg tRNA and 4 U RNasin in a final volume of 10 μl. The reaction components were preannealed at 37° C. for 15 Minutes then allowed to cool slowly to room temperature. HeLa cell nuclear extracts were used as a source of mammalian RNase H. Reactions were initiated by addition of 2 μg of nuclear extract (5 μl) and reactions were allowed to proceed for 10 Minutes at 37° C. Reactions were stopped by phenol/chloroform extraction and RNA components were precipitated with ethanol. Equal CPMs were loaded on a 20% polyacrylamide gel containing 7M urea and RNA cleavage products were resolved and visualized by electrophoresis followed by autoradiography. Quantitation of cleavage products was performed using a Molecular Dynamics Densitometer.

[2] = system: 47-mer H-ras RNA hairpin target; test: Gel shift assay
Method: The structured ras target transcript, a 47-nucleotide hairpin containing the mutated codon 12, was prepared and mapped as described in Lima et al., Biochemistry 1991, 31, 12055-12061. Hybridization reactions were prepared in 20 μl containing 100 mM sodium, 10 mM phosphate, 0.1 mM EDTA, 100 CPM of T7-generated RNA (approximately 10 pM), and antisense oligonucleotide ranging in concentration from 1 pM to 10 μM. Reactions were incubated 24 hours at 37° C. Following hybridization, loading buffer was added to the reactions and reaction products were resolved on 20% native polyacrylamide gels, prepared using 45 mM tris-borate and 1 mM MgCl2 (TBM). Electrophoresis was carried out at 10° C. and gels were quantitated using a Molecular Dynamics Phosphorimager.

T24 cancer cells = test: Inhibition of proliferation of cancer cells; format: cell-based, human
Method: Cells were seeded on 60 mm plates and were treated with oligonucleotide in the presence of DOTMA when they reached 70% confluency. Time course experiment: On day 1, cells were treated with a single dose of oligonucleotide at a final concentration of 100nM. The growth medium was changed once on day 3 and cells were counted every day for 5 days, using a counting chamber.

[3] = system: mutant (activated, codon 12) H-ras RNA, ras-luciferase fusion reporter in HeLa cells; test: ras-luciferase reporter gene assay, mutant form
[4] = system: normal (wild type) H-ras RNA, ras-luciferase fusion reporter in HeLa cells; test: ras-luciferase reporter gene assay, normal form; details: read-out: IC50, inhibition of ras-luciferase activity; normal (unmutated) ras-luciferase, dose-response
[5] = system: ras mRNA in T24 cells (activated codon 12); test: Northern blot analysis of ras expression in T24 cells; format: cell-based, human; set-up: inhibition of ras mRNA: concentration or dose not given beside the values
Method: The human urinary bladder cancer cell line T24 was obtained from the American Type Culture Collection (Rockville Md.). Cells were grown in McCoy's 5 A medium with L-glutamine (Gibco BRL, Gaithersburg Md.), supplemented with 10% heat-inactivated fetal calf serum and 50 U/ml each of penicillin and streptomycin. Cells were seeded on 100 Mm plates. When they reached 70% confluency, they were treated with oligonucleotide. Plates were washed with 10 ml prewarmed PBS and 5 ml of Opti-MEM reduced-serum medium containing 2.5 μl DOTMA. Oligonucleotide was then added to the desired concentration. After 4 hours of treatment, the medium was replaced with McCoy's medium. Cells were harvested 48 hours after oligonucleotide treatment and RNA was isolated using a standard CsCl purification method.
(§1) Northern hybridization: 10 μg of each RNA was electrophoresed on a 1.2% agarose/formaldehyde gel and transferred overnight to GeneBind 45 nylon membrane (Pharmacia LKB, Piscataway, N.J.) using standard methods. […] RNA was UV-crosslinked to the membrane. Double-stranded ^32 P-labeled probes were synthesized using the Prime a Gene labeling kit (Promega, Madison Wis.). The ras probe was a SalI-NheI fragment of a cDNA clone of the activated (mutant) H-ras mRNA having a GGC-to-GTC mutation at codon-12. The control probe was G3PDH. Blots were prehybridized for 15 Minutes at 68° C. with the QuickHyb hybridization solution (Stratagene, La Jolla, Calif.). The heat-denatured radioactive probe (2.5×10^6 counts/2 ml hybridization solution) mixed with 100 μl of 10 Mg/ml salmon sperm DNA was added and the membrane was hybridized for 1 hour at 68° C. The blots were washed twice for 15 minutes at room temperature in 2× SSC/0.1% SDS and once for 30 minutes at 60° C. with 0.1XSSC/0.1%SDS. Blots were autoradiographed and the intensity of signal was quantitated using an ImageQuant PhosphorImager (Molecular Dynamics, Sunnyvale, Calif.). Northern blots were first hybridized with the ras probe, then stripped by boiling for 15 Minutes in 0.1× SSC/0.1%SDS and rehybridized with the control G3PDH probe to check for correct sample loading.

[6] = HeLa cell extract, 37° C.
Method: Oligonucleotides were incubated in crude HeLa cellular extracts at 37° C. to determine their sensitivity to nuclease degradation as described in Dignam et al., Nucleic Acids Res. 1983, 11, 1475-1489.

[7] = system: full length H-ras mRNA (activated, codon 12); test: ras transactivation reporter gene system; details: Table 5, antisense activity against H-ras; listed as Deoxy
[8] = system: ras mRNA in HeLa cells (wild-type H-ras codon 12); test: Northern blot analysis of ras expression in HeLa cells; format: cell-based, human
Method: HeLa cells were maintained as monolayers on 6-well plates in Dulbecco's Modified Eagle's medium (DMEM) supplemented with 10% fetal bovine serum and 100 U/ml penicillin. Treatment with oligonucleotide and isolation of RNA were essentially as described above for T24 cells.
as §1, with “Northern blots were first hybridized with the ras probe, then stripped by boiling for 15 Minutes in 0.1× SSC/0.1%SDS and rehybridized with the control G3PDH probe to check for correct sample loading.” left out

[9] = system: 25-mer oligoribonucleotide complement (H-ras codon 12 RNA target); test: Melting curves, hybridization to 25-mer RNA target; format: binding, human
Method: Absorbance vs temperature curves were measured at 260 nm using a Gilford 260 spectrophotometer interfaced to an IBM PC computer and a Gilford Response II spectrophotometer. The buffer contained 100 mM Na^+, 10 mM phosphate and 0.1 mM EDTA, pH 7. Oligonucleotide concentration was 4 μM each strand determined from the absorbance at 85° C. and extinction coefficients calculated according to Puglisi and Tinoco, Methods in Enzymol. 1989, 180, 304-325. Tm values, free energies of duplex formation and association constants were obtained from fits of data to a two state model with linear sloping baselines. Petersheim, M. and Turner, D.H., Biochemistry 1983, 22, 256-263. Reported parameters are averages of at least three experiments. For some oligonucleotides, free energies of duplex formation were also obtained from plots of Tm^-1 vs log10 (concentration). Borer, P.N., Dengler, B., Tinoco, I., Jr., and Uhlenbeck, O.C., J. Mol. Biol., 1974, 86, 843-853.

Sequence	ability to direct RNase H cleavage [1]	binding to the hairpin target ([2]; listed as full 2'--O--methyl 17-mer)	inhibition of T24 cell proliferation relative to HeLa cells (T24 cancer cells; 100 nM oligonucleotide concentration)	inhibition of cell proliferation (T24 cancer cells; T24 cells) [%]	IC50 (T24 cancer cells; T24 cells, dose-response, counted 3 days later, read-out: IC50, cell proliferation) [nM]	selectivity for inhibition of mutant ras-luciferase relative to wild type ([3]; 100 nM oligonucleotide)	selectivity toward the mutant form of ras-luciferase as compared to the normal form ([3]; at low concentrations)	selectivity, mutant over wild type ([3]; dose-dependent experiment, FIG. 8) [fold]	IC50 ([3]; read-out: IC50, inhibition of ras-luciferase activity, mutant ras-luciferase, dose-response) [nM]	selectivity toward the mutated form of ras-luciferase ([3]; single dose 0.5 μM)	IC50 [4] [nM]	inhibition of ras expression [5]	inhibition of ras mRNA [5] [%]	degradation [6]	IC50 [7] [nM]	inhibition of ras expression [8]	binding to the hairpin target ([2]; listed as full deoxy 17-mer)	Tm ([9]; Table 5, 2'-modified 17-mer with 7-deoxy gap, 25-mer oligoribonucleotide complement) [°C]	ΔΔG°37 ([9]; free energy difference between hybridization to mutant target and to wild type target)
CCACACCGACGGCGCCC (chemistry not given here) [compound 4122]	no cleavage was observed	formed the most stable duplex																	
CCACACCGACGGCGCCC [2570] (phosphorothioate, further chemistry not given here) [compound 2570]			four times as severe	61	98	approximately 4 fold	approximately threefold	5	~100	displayed selectivity toward the mutated form of ras-luciferase	~250	inhibited ras expression in T24 cells; also recorded: decreased ras mRNA levels in T24 cells	82	no degradation after 5 hours	150	did not inhibit ras expression in HeLa cells	formed the least stable duplex	64.2	+1.8 kcal/mole
